Test results taken from patent US20100311674A1, “PHARMACEUTICAL COMPOSITIONS WITH A MECHANISM OF MULTI-TARGET RECEPTOR RETROACTION FOR TREATING DEPRESSION” (Yu-Fen Chi, priority 2007, published 2010).

Columns and labels:
ICR mice [1] = test: Mouse tail-hanging experiment (Experiment 5); type: in vivo
Method: 5.1 Experimental animals: ICR mice, male, 22.0±2 g of body weight, secondary, are provided by the Experimental Animal Science Department of Capital Medical University, Beijing. 5.2 Experiment pharmaceuticals: The pharmaceutical of Embodiment 3 is provided by Beijing Wonner Biotech. […] High dose of Embodiment 3 (80 mg/kg/d); 2. middle dose of Embodiment 3 (40 mg/kg/d); and 3. low dose of Embodiment 3 (20 mg/kg/d). 5.5.1 Group division and administration of drug: The mice are grouped randomly, and 10 mice are in each group. 1. High dose of Embodiment 3 (80 mg/kg, P.O., administered for 7 days); 2. middle dose of Embodiment 3 (40 mg/kg, P.O., administered for 7 days); 3. low dose of Embodiment 3 (20 mg/kg, P.O., administered for 7 days); 4. […] After 1 hour of the last administration of drug, the mouse tail-hanging experiment is proceeded. 5.5.2 Experimental method: The mouse's tail (1 cm to the tail end) is taped on the wood strip higher than the platform for 5 cm and hung up for 6 minutes. The time of non-movement of the mouse for the last 5 minutes is recorded. 5.5.3 Statistic calculation: The experimental data are represented as X+SD, and the experimental result is calculated as ANOVA by SPSS 11.5 statistic software.

ICR mice [2] = test: Resetpine-induced mouse body temperature decrease experiment (Experiment 6); type: in vivo
Source text: 6.1 Experimental animals: ICR mice, male, 22.0±2 g of body weight, secondary, are provided by the Experimental Animal Science Department of Capital Medical University, Beijing.
6.2 Experiment pharmaceuticals: The pharmaceutical of Embodiment 3 is provided by Beijing Wonner Biotech. Ltd. Co., Paroxetine (Paxil) is the product of Zhong Mei Tianjin Smith Kline pharmaceuticals Co. Ltd., and Resetpine is the product of Guangdong BangMin Pharmaceutical Co., Ltd.
6.4 Dose designs: 1. High dose of Embodiment 3 (80 mg/kg/d); 2. middle dose of Embodiment 3 (40 mg/kg/d); and 3. low dose of Embodiment 3 (20 mg/kg/d).
6.5.1 Group division and administration of drug: The mice are grouped randomly, and 10 mice are in each group. 1. High dose of Embodiment 3 (80 mg/kg, P.O., administered for 7 days); 2. middle dose of Embodiment 3 (40 mg/kg, P.O., administered for 7 days); 3. low dose of Embodiment 3 (20 mg/kg, P.O., administered for 7 days); 4.
6.5.2 Experimental method: After 1 hour of the last administration of drug on the eighth day, the mouse's anal temperature is determined. […] After 4 hours of injecting Resetpine, the mouse's anal temperature is determined once again. […]
6.5.3 Statistic calculation: The experimental data are represented as X±SD, and the experimental result is calculated as ANOVA by SPSS 11.5 statistic software.

[3] = system: unpredictable long-term stimulus model; test: Step-through test (passive avoidance), unpredictable long-term stimulus model (Experiment 8); type: in vivo, rat; settings: 2 mg/kg/d into the stomach, 24 days
Source text: 7.5.2 Passive avoidance experiment (Step-through test): The step through box is configured by the light chamber and the dark chamber, and a channel is linked between the bright chamber and the dark chamber for mouse entrance and exit. The grille of the dark chamber is connected to the electric shock equipment, and a mobile plate is set there between. If the rat enters into the dark chamber, the rat will be electrically shocked. During training, the rat is placed in the light chamber and is back in the hole for adaptation for 5 minutes. Then the plate is removed and the rat is observed for another 5 minutes. The time that the rat enters into for the first time is recorded (electric-shocking latent period), and the time thereof is the learning record. After 24 hours, the test is repeated. The plate is removed and the dark chamber is electrified for 5 minutes so as to observe the time that the rat enters into the dark chamber for the first time. This is thereof the memory record.
Unpredictable long-term stimulus model: Health Wistar male rats, secondary, 240˜270 g of body weight, are purchased from Beijing Vital River Experimental Animal Technology Ltd. Co. (The quality certificate number: SOCK (JING) 2002-2003). […]
8.6 Statistic calculation: The experimental data are represented as […], and the experimental result is calculated as ANOVA by SPSS 11.5 statistic software.

[4] = system: NE and 5-HT contents in the rat cerebral cortex; test: HPLC-electrochemical test of NE and 5-HT contents in the rat cerebral cortex, unpredictable long-term stimulus model (Experiment 8); type: in vivo; settings: 2 mg/kg/d into the stomach, 24 days
Method: The above pharmaceuticals are prepared with 0.5% of sodium carboxymethylcellulose (CMC-Na) for feeding into the stomach. Benzylpenicillin sodium for injection is the product of North China Pharmaceutical Huasheng Co. Ltd. (Lot: S0511204), and norepinephrine (NE) and 5-hydrotryptamine (5-HT) standards are the products of Sigma Co. Other reagents are all marketed.
8.4.1 Group division and administration of drug: The rats are grouped randomly into 6 groups. […] The test drugs and the positive control drug are prepared with 0.5% of CMC-Na for feeding into the stomach once every day.
Unpredictable long-term stimulus model: The rats in the control group eat and drink normally, and there is no stimulus performed. […]
8.5.6 HPLC-electrochemical test: The amounts of norepinephrine and 5-hydrotryptamine in the rat cerebral cortex are measured.
8.6 Statistic calculation: The experimental data are represented as 7±SD, and the experimental result is calculated as ANOVA by SPSS 11.5 statistic software.

Compound: Fc1ccc([C@@H]2CCNC[C@H]2COc2ccc3c(c2)OCO3)cc1 [Paroxetine]
- Time of non-movement (ICR mice [1]; 3 mg/kg P.O. 7 days, 1 h after last dose, last 5 of 6 min): 75.33 ± 22.91 s
- Effect on time of non-movement after the mouse's tail is hung up (in words) (ICR mice [1]; high and middle doses of Embodiment 3, Paroxetine, significantly different from control): decrease the time of non-movement
- Decreased temperature (ICR mice [2]; 3 mg/kg P.O. 7 days, 4 h after Resetpine 2 mg/kg i.p.): 2.38 ± 0.69 °C
- Effect on reduced body temperature induced by Resetpine (in words) (ICR mice [2]; high, middle and low doses of Embodiment 3, Paroxetine): decrease the reduced body temperature induced by Resetpine
- Latent period of first day ([3]; learning record): 75.75 ± 46.52 s
- Latent period of second day ([3]; memory record): 257.46 ± 66.92 s
- NE [4]: 220.5419 ± 38.32 nmol/L brain tissue extract
